Among the data in ChEMBL document CHEMBL1155699, “Steroidal alkaloids from the leaves of Sarcococca coriacea of Nepalese origin” (J Nat Prod, 2001) are IC50 values, retold here.

One test addresses Acetylcholinesterase (Electrophorus electricus, UniProt O42275). The test is described as follows: Inhibition of electric eel AChE by Ellman's method.
The target in another test is Cholinesterase (Equus caballus, UniProt P81908). The test can be described thus: Inhibition of horse BChE.
Chain of Cholinesterase (P81908 whole entry): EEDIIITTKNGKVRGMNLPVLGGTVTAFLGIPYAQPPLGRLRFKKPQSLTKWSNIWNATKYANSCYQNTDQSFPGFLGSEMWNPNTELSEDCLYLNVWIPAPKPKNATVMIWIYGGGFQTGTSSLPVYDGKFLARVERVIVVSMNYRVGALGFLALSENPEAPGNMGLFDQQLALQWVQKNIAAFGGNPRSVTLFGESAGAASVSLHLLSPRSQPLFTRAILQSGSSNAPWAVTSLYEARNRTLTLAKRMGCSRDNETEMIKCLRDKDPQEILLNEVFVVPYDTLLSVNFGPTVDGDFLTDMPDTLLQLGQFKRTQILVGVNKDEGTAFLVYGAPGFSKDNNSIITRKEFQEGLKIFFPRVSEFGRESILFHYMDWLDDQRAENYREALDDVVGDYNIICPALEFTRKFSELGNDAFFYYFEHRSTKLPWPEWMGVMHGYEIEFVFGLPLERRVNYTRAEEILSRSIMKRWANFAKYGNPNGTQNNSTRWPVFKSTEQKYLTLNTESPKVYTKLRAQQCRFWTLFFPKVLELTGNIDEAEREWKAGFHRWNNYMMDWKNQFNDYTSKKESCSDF

Chain of Acetylcholinesterase (O42275 whole entry): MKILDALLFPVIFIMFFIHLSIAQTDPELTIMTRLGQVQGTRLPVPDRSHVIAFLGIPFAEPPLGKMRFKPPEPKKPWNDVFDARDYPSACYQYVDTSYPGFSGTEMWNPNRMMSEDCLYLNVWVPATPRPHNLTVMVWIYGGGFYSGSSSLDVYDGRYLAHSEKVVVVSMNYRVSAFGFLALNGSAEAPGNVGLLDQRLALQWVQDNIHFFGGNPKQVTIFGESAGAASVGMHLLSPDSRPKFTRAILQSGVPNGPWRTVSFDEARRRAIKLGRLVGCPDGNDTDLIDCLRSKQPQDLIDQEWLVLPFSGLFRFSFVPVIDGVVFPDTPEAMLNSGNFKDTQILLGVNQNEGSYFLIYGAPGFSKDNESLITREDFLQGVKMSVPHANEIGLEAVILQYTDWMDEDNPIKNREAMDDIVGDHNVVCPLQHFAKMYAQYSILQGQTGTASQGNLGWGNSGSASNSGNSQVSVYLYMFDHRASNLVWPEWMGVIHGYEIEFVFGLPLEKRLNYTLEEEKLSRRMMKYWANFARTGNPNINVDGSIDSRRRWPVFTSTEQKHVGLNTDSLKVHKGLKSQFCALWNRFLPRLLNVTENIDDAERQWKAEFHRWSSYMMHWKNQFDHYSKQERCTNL

Turning to `CC(=O)O[C@H]1[C@@H](NC(=O)C=C(C)C)CC[C@]2(C)[C@H]3CC[C@]4(C)C([C@H](C)N(C)C)=CC[C@H]4[C@@H]3CC[C@@H]12` [VAGANINE D], the results for the IC50 against Acetylcholinesterase and against Cholinesterase were 46.9 µM and 10 µM, respectively.
The matching figures for `C/C=C(\C)C(=O)N[C@@H]1[C@H](OC(C)=O)[C@@H]2CC[C@@H]3[C@H](CC[C@]4(C)C([C@H](C)NC)=CC[C@@H]34)[C@@]2(C)C[C@@H]1OC(C)=O` [NEPAPAKISTAMINE]: 50.1 µM and 25 µM.
